Experiments:
mouse SKH2 [1] = test: In vivo pro-pigmenting activity by topical route with NB-UVB, clinical score of pigmentation; conditions: 8% topical on the back of SKH2 mice, 43 days, in combination with NB-UVB irradiation (60 mJ/cm2); versus irradiated group treated with the vehicle
Experimental: (§1) In mice, melanocytes are not present in the epidermis of hair-covered areas but are mainly present in the hair follicles. Pigmentation can be induced by irradiation with UVB in combination with topical or oral agents. The pigmentation changes can be quantified by various means such as clinical score pigmentation and pigmentation measurement by image analysis.
(§2) The evaluation of the MC1R receptor agonists pro-pigmenting activity in combination with NB-UVB irradiation (60 mJ/cm2) is performed by topical application on the back of the mouse SKH2 during 43 days with MC1R agonist compound A at 8% or MC1R agonist compound B at 8% in combination with NB-UVB radiation.
(§3) Practically, the animals were irradiated using the system Biospectra equipped NB-UVB lamps (peak emission maximum at 312 nm) irradiation at 3 times per week at 60 mJ/cm^2 on Monday, Wednesday and Friday. The treatment is carried out 5 days a week and 50 μl of the test product (compounds A or B) is diluted in the vehicle and applied on the back. In the case of associations with radiation, the compounds are administered after irradiation.
(§4) Then, the pigmentation changes is quantified by clinical score pigmentation and pigmentation measurement by image analysis.
The clinical score of animals is performed 1 time per week before irradiation. The pigmentation is evaluated with a score on a scale of 0 to 4. […]

mouse SKH2 [2] = test: In vivo pro-pigmenting activity by topical route with NB-UVB, quantification of pigmentation by image analysis at the end of study; conditions: 8% topical on the back of SKH2 mice, in combination with NB-UVB irradiation (60 mJ/cm2)
Experimental: as §1, §2, §3, §4
At the end of the study, for each animal, two digital photographs of the skin of the back are made with a high quality dermascope and digital camera such as the LiteScope™. […]

| Structure (SMILES) | pigmentation of the skin (clinical score of pigmentation, FIGS. 1 and 2) (mouse SKH2 [1]) | pigmentation level at the end of the study by image analysis (FIG. 3) (mouse SKH2 [2]) |
| --- | --- | --- |
| CCOC(=O)C1(C2CCCCC2)CCN(C(=O)[C@@H](Cc2ccc(OC)cc2)NC(=O)NCCc2c[nH]cn2)CC1 [Compound A, 4-Cyclohexyl-1-[(R)-2-{3-[2-(1H-imidazol-4-yl)-ethyl]-ureido}-3-(4-methoxy-phenyl)-propionyl]-piperidine-4-ethyl-carboxylate] | significantly increases the pigmentation of the skin | synergistic effect is confirmed |
| COc1ccc(C[C@@H](NC(=O)CCc2nc[nH]c2C)C(=O)N2CC(OCC3CC3)(c3ccccc3C)C2)cc1 [compound B, N—[(R)-2-(3-Cyclopropylmethoxy-3-o-tolyl-azetidin-1-yl)-1-(4-methoxy-benzyl)-2-oxo-ethyl]-3-(5-methyl-1H-imidazol-4-yl)-propionamide] | significantly increases the pigmentation of the skin |  |

— patent publication US9610461B2, “Combination of a MC1R receptor agonist and UVB for the treatment and/or prevention of pigmentation disorders” (GALDERMA RESEARCH & DEVELOPMENT, priority 2012, dated 2017)
